Experimental data published in the METLIN SMRT retention time set (Domingo-Almenara et al. 2019).

Experiment: gradient 5% acetonitrile 3 min, to 50% in 2 min, to 85% in 15 min, held 3 min, 100 µL/min
Details: column: Zorbax Extend-C18 2.1 x 50 mm; eluents: water / acetonitrile, 0.1% formic acid
How it was run: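 Mixtures of ~100 pure standards were chromatographed on a Zorbax Extend-C18 column (2.1 × 50 mm, 1.8 μm) at 100 μL/min using water and acetonitrile, each with 0.1% formic acid. Detection used a quadrupole time-of-flight mass spectrometer in positive and negative ionization mode, and data collection spanned 3 months. Retention time was obtained from adduct peaks picked computationally and each checked manually.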

SMILES | RP-LC retention time [s]
COc1cc(-c2nc3ncccn3c2Nc2cccc(C)c2)ccc1O | 647
C=CCn1c(=O)c2ccccc2n(Cc2nc(-c3ccccc3C)no2)c1=O | 1080
COC(=O)CNC(=O)N1CCC2(CC1)Nc1cc(F)ccc1-n1cccc12 | 816
Nc1ccc(C(=O)C(=O)c2ccc(N)cc2)cc1 | 730
CN1C(=O)C(C)(C)c2cc(S(=O)(=O)N3CCN(c4ccccn4)CC3)ccc21 | 633
COc1cc(C(=O)Nc2nc(-c3ccc4c(c3)NC(=O)CO4)c(C)s2)cc(OC)c1OC | 860
Cn1c(=O)c2c(ncn2CC2OCCO2)n(C)c1=O | 606
FC(F)(F)c1cccc(-c2ccc(CNCC3CCCO3)o2)c1 (configuration not stated) | 703
CC(C)C(=O)NCCc1nc2cccnc2n1C | 545
CC(=O)c1ccc(N2CCN(C(=O)CN3C(=O)C4C5C=CC(C5)C4C3=O)CC2)cc1 (configuration not stated) | 644
Cn1c(=O)c2c(nc(Cc3ccccc3)n2C)n(C)c1=O | 764
Cc1ccc(NC(=O)Cn2nc(N3CCCC3)c3ccccc3c2=O)cc1C | 1000
Cc1ccc(NS(=O)(=O)c2cc3n(c2)CCCNC3=O)c(F)c1 | 663
Cc1cc2nn(CC(=O)Nc3ccc(C)c(C)c3)c(=O)n2c(N2CCCC2)n1 | 1010
Cc1ccc(NC(=O)NC2CCN(C(=O)N3C[C@H]4C[C@H](C3)[C@H]3CCCC(=O)N3C4)CC2)cc1C | 702
CCC(=O)N1CCc2cc(N3CC(C(=O)NCc4ccncc4)CC3=O)ccc21 (configuration not stated) | 578
Cn1nccc1-c1cccc(-c2noc(-c3cccc(Cl)c3)n2)c1 | 1260
Cc1oncc1CN1CCN(C(=O)c2c(F)cccc2F)CC1 | 562
Cc1nc(C)c(C(=O)Nc2cc(F)ccc2F)s1 | 783
Cn1c(=O)c2c(ncn2CC(=O)Nc2cccc(N3CCCS3(=O)=O)c2)n(C)c1=O | 595
COc1cc(CCC(=O)N2C[C@@H](C(N)=O)[C@H](c3n[nH]c(C)n3)C2)on1 | 566
COc1ccc(-n2nnc(C(=O)O)c2C)cc1OC | 628
O=C(Nc1cc(-c2ccccn2)no1)c1cccc(Br)c1 | 894

SMILES | RP-LC retention time [s]
CCOc1ccc(CC(=O)N2C[C@@H]3C[C@H](NC(=O)c4cccs4)[C@H]2C3)cc1 | 782
C[C@@H](C(=O)O)c1ccc(-c2ccccc2)c(F)c1 | 974
CCOc1ccc(-c2cn3ccn(-c4cccc(F)c4)c(=O)c3n2)cc1 | 846
Cc1ccc(CC(=O)NC2CCN(c3cc(C)cc(C)c3)C2=O)cc1 (configuration not stated) | 893
Cc1ccc(CNC(=O)N2CCC3(CC2)NC(=O)c2ccc(F)cc2N3C)cc1 | 761
COc1ccc(Nc2c(-c3ccc(C)cc3)nc3ncccn23)cc1OC | 683
C=Cc1ccc(CN2N=C(C(=O)N3CCOCC3)S(=O)(=O)c3ccc(C)cc32)cc1 | 919
Cc1ccc(Cl)c(NC(=O)c2[nH]c3cc(C)sc3c2CN2CCOCC2)c1 | 724
Cc1ccc(-c2cn3c(CC(=O)NCc4cccs4)csc3n2)cc1C | 799
Cc1cccc(CS(=O)(=O)N2CC(c3nc(Cc4ccccc4)no3)C2)c1 | 977
COCCc1noc(C2CN(C(=O)c3cn(C)cn3)C2)n1 | 555
O=C(Cc1ccc(NC(=O)NC2CC2)cc1)NCC(F)(F)F | 611
Cc1c(N2C(=O)[C@@H]3[C@H](O)CCN3C2=O)ccc(C#N)c1Cl | 765
COCCN1C(=O)[C@H]2CN(Cc3cccc(OC(F)(F)F)c3)C[C@H]2C1=O | 706
COc1ccc(S(=O)(=O)N2C[C@@H]3C[C@H]2C[C@@H]3NC(=O)c2cccs2)cc1Cl | 792
CCOc1ccc(NC(=O)N2CCC3(C2)C(=O)Nc2ccc(OC)cc23)cc1 (configuration not stated) | 731
CCC(C)NC(=O)c1ccc2c(c1)CC(=O)N2CC (configuration not stated) | 691
COc1ccccc1NC(=O)Cc1nnc(-c2ccc3ncccc3c2)o1 | 724
Cc1ccc(C)c(NC(=O)CN2C(=O)C(C(=O)N3CCCC3)Sc3ccccc32)c1 (configuration not stated) | 969
CC(C)n1c(=O)sc2cc(S(=O)(=O)N3CCC(C(=O)N4CCCCC4)CC3)ccc21 | 900
Cc1c(CNCCN(C)C)c(C(=O)O)c(C)n1Cc1ccccc1F | 591
COc1ccc(C(=O)OCCN2CCN(C3=NS(=O)(=O)c4ccccc43)CC2)cc1OC | 618
O=C(Cn1cnc2c(sc3nc(-c4ccccc4)ccc32)c1=O)Nc1ccc(F)cc1 | 994

SMILES | RP-LC retention time [s]
COc1ccc(C2(c3nc(CCS(=O)(=O)c4ccccc4)no3)CC2)cc1 | 959
CCCC(=O)Nc1nnc(SCc2nnc(-c3ccccc3)o2)s1 | 779
COC(=O)c1ccc(NC(=O)N2[C@H]3CC[C@@H]2c2cnc(C)nc2C3)cc1 | 653
CC1CCN(C(=O)CN2C(=O)C3CCCCN3c3ccc(S(=O)(=O)N(C)C)cc32)CC1 (configuration not stated) | 910
Cc1ccc(S(=O)(=O)N2CC(Cc3nncn3C3CCCC3)C2)cc1Cl | 795
Cc1ccsc1C(=O)N1C[C@@H]2CCCN3CCC[C@@H]([C@H]23)[C@H]1CCCC(=O)N1CCOCC1 | 593
O=C(CN1CCCCC1c1nc(-c2cccs2)no1)NCc1cccs1 (configuration not stated) | 996
CCOC(=O)CNC(=O)NCCn1c(C(F)(F)F)nc2ccccc21 | 686
Cc1cccc(S(=O)(=O)N2CC3CN(C(=O)CC4CCCC4)CC(C2)O3)c1 | 890
CCn1c(C(=O)NCc2ccc(C)cc2)cc2sc(Cl)cc21 | 1200
Cc1ccc(N2C(=O)C3N=NN(Cc4nc(-c5ccccc5Br)no4)C3C2=O)cc1C (configuration not stated) | 1030
O=C(Nc1cccs1)Nc1ccccc1NC(=O)c1ccccc1C(F)(F)F | 805
COc1cccc(-c2cc(=O)c3ccccc3o2)c1N | 948
Cc1cc(C)c2c(N3CCSCC3)nc(C(=O)NCCCN3CCCC3)nc2n1 | 552
COc1ccccc1-c1noc(C2CCCN2C(=O)Cc2c[nH]c3ccccc23)n1 (configuration not stated) | 838
COc1ccc(-c2noc(-c3cn(C)c4ccc(C)cc4c3=O)n2)cc1OC | 796
CC12C(=O)N(c3nccs3)C(=O)C1(C)C1CCC2O1 (configuration not stated) | 741
Cc1ccc(-c2nc(C3CC(=O)N(c4ccc(F)c(Cl)c4)C3)no2)cc1C (configuration not stated) | 1090
Cc1oc(C2CCC2)nc1C(=O)NCc1ccc2c(c1)OCO2 | 978
O=C(c1ccc(OCC2CCCN2C(=O)c2ccccc2)cc1)N1CCCC1 (configuration not stated) | 789
COc1ccc(NC(=O)Nc2c(-c3ccc(C)cc3)nc3ccccn23)cc1Cl | 712
